PMC7915858, “Complementary Effects of Carbamylated and Citrullinated LL37 in Autoimmunity and Inflammation in Systemic Lupus Erythematosus” (International Journal of Molecular Sciences, 2021)

How the values were obtained:
[1] = biological target: HLA-DR1 (DRB1*0101) (Homo sapiens, UniProt P01903+P01911, /P40L/Q125E/R42F/V115G/Y59C); test: Peptide-MHC class II binding (HLA-DR folding assay, LOCI/AlphaScreen); conditions: peptide titrated, 48 h at 18 °C, LOCI, two experiments, KD values only in picture (Table S2)
Protocol: (§1) Peptide-MHC-binding assays was performed by ImmunAware (Horsholm, Denmark). Binding was measured using a Luminescent Oxygen Channeling Immunoassay (LOCI), marketed by Perkin Elmer (Hopkinton, MA, USA) as AlphaScreen. This is a nonradioactive bead-based homogenous proximity assay, where the donor beads containing a photosensitizer compound, upon excitation with light at a 680 nm wavelength, converts ambient oxygen to energy-rich, short-lived singlet oxygen; this latter is transferred to acceptor beads, in close proximity only. The acceptor beads can respond to a single oxygen with a luminescence/fluorescence cascade, leading to an amplified signal in the 520–620 nm range. There is a tag binding to the donor beads: a biotin group engineered into the HLA β chain.
(§2) The acceptor beads are linked instead to a conformation-dependent HLA class II specific antibody (L243). Thus, only when a peptide binds well the HLA class II molecule, a corrected folded HLA class II molecule is formed and can be recognized by the L243 antibody. Biotinylated recombinant HLA class II molecules were diluted from an 8 M urea buffer into a folding buffer (PBS, 20% glycerol, Protease inhibitor mix). Different peptide concentrations, between 0.13 nM and 10,000 nM, were added into the assay. The tested peptides were titrated in 5-to-8 five-fold concentration, […]. The reaction mixtures were incubated for 48 h at 18 °C to allow peptide-HLA-complex formation to reach a steady state. After incubation, 15 μL of the folding mixture was transferred to a 384-well Optiplate (Perkin Elmer), followed by addition of 15 μL of a solution containing L243 acceptor beads and streptavidin donor beads (final concentration of beads was 5 μL/mL). The plates were incubated over night at 18 °C and then measured in enVisionTM, Perkin Elmer. Assay signals measured in OD450 were plotted against the offered peptide concentrations and analyzed by non-linear regression using GraphPad Prism. The peptide concentration resulting in half saturation, the half maximal effective concentration (EC50), was estimated by fitting the experimental data to the equation: Y = Bmax*X/(KD + X), where Y is the OD450 measurement of complexes formed and X is the concentration of ligand (peptide) offered. The EC50 approximates the KD as long as the receptor concentration used is less than the KD, thus avoiding ligand depletion.

[2] = biological target: HLA-DR15 (DRB1*1501) (Homo sapiens, UniProt P01903+P01911); test: as above; conditions: peptide titrated, 48 h at 18 °C, LOCI, two experiments, KD values only in picture (Table S2)
Protocol: as §1, §2

[3] = test system: SLE CD4 T-cells (CXCR5); test: CXCR5 (TFH marker) expression on stimulated CD4 T-cells, flow cytometry; type: cell-based, human
Text: Antibodies to CD4, CD8, CD3 conjugated with various fluorochromes (FITC, phycoerythrin (PE), peridinin-chlorophyll-protein (PerCp), allophycocyanin (APC), PE-Cy7) were from BD Biosciences or eBiosciences (San Diego, CA). For further LL37-specific T-cell characterization and B-cell characterization we used: APC-Cy7-CXCR5 (FAB190), APC or PE-CD38, CD19, CD20, CD27, antibodies, purchased from BD Biosciences, eBiosciences, Novus Biologicals (Littleton, CO), R&D (Minneapolis, MN). Appropriate isotype-matched controls were purchased from the same companies. PerCp-7-AAD was from BD Pharmingen, DAPI from Invitrogen (Thermo Fisher, Carlsbad, CA, USA).
PBMCs were purified from EDTA-treated blood, on Ficoll-Hypaque (Pharmacia Fine Chemicals, Uppsala, Sweden) and were incubated (10^5 cells/well) in 96-well-flat-bottom-microplates (BD) in T-cell-medium (RPMI 1640, 10% heat-inactivated human serum, HS, Gibco), 2 mM L-glutamine, 10 U/mL penicillin and 100 μg/mL streptomycin), with/without peptides. We performed assays on fresh cells, within 1-to-3 h from collection or on PBMCs frozen in 90% FCS−10% DMSO, whose viability we assessed by Trypan blue exclusion, with an inverted microscope. Recovery of live cells was between 65 and 85% of the frozen number. At day 3 and 5, BrdU was added (1 μg/mL). BrdU-incorporation was detected by APC-labeled anti-BrdU antibody (BD Pharmingen), after surface staining for CD4, CD3, CD8 and analyzed by flow cytometry (Gallios, BeckmanCoulter, Brea, CA, USA). Internal control for T-cell viability and proliferation was PHA treatment (2 μg/mL). SI for proliferation was calculated by dividing percent of BrdU-staining in the presence of each peptide antigen (LL37, carb-LL37, cit-LL37, LL37 reverse, REV; cit-LL37 reverse, cit-REV; carb-LL37 reverse, carb-REV) by the percent obtained in the untreated cells. SI for proliferation was considered positive when the values of percent of BrdU positive cells was three times higher than the values obtained with the control peptides (SI > 3). Assays were repeated twice with each patient. In rare cases in which background proliferation (culture with REV, cit-REV, carb-REV), exceeded antigen-specific proliferation (that is response to LL37, carb-LL37, cit-LL37), the assay was repeated three times. Concomitant phenotype analysis of LL37-responder T-cells included staining for CD3, CD4, CD8, CXCR5 (CXCR5 was assessed on BrdU/CD3/CD4-positive cells).

[4] = test system: human DNA; test: Binding of peptides to DNA by EMSA; conditions: 2% agarose gel
Protocol: Human DNA was extracted from PBMCs, as reported and was fragmented by sonication. Five milligrams of DNA in a volume of 300 μL were fragmented using the Sonics Vibra Cell sonicator (Newtown, CT, USA), with the following settings: 2, 4 and 10 sonication cycles (30 s on, 30 s off, in ice) to obtain DNA fragment sizes between 100 and 1000 bp. The resulting size distribution was controlled by 2% agarose gel electrophoresis.
EMSA was performed by mixing various μM concentrations of LL37 or carb-LL37 or cit-LL37 (or AMP S100A8, as negative control), with appropriate concentration of DNA, which respected the appropriate protein–DNA ratio used in pDC-stimulation assays. DNA alone and the mixtures were run on a 2% agarose gel to evidence the delay in migration of the DNA, due to the binding to the tested proteins. DNA on the gel was visualized by with SYBR Safe DNA gel staining (ThermoFisher Scientific).

L*LGDFFRK*SK*EK*IGKEFK*RIVQRIK*DFLRNLVPRTES [carb-LL37]
Binding to HLA-DRB1*0101 compared to cit-LL37 [1]: equivalent to the binding efficiency of cit-LL37 | Binding to HLA-DRB1*0101 compared to cit-LL37 ([1]; listed as Carb-LL37): binds HLA-DR alleles similarly to cit-LL37 | Binding to HLA-DRB1*1501 compared to cit-LL37 [2]: equivalent to the binding efficiency of cit-LL37 | Binding to HLA-DRB1*1501 compared to cit-LL37 ([2]; listed as Carb-LL37): binds HLA-DR alleles similarly to cit-LL37 | Correlation of CXCR5 fold-increase with anti-native LL37 antibody response ([3]; Spearman, Figure 4e): significantly correlated | Correlation of T-cell proliferation with CXCR5 up-regulation ([3]; Spearman, Figure 3d): positive and significance correlation | CXCR5 up-regulation on antigen-specific T-cells ([3]; fold-increase with respect to T-cells proliferating to control carb-REV): up-regulation of the TFH cell marker CXCR5 | CXCR5-positive cells among total CD3+CD4+ cells ([3]; representative plot, Figure S5b left panels): 8.95% | CXCR5-positive cells among CD3+CD4+BrdU+ cells ([3]; representative plot, Figure S5b middle panels): 39.4% | CXCR5-positive cells among CD3+CD4+BrdU- cells ([3]; representative plot, Figure S5b right panels): 3.08% | Concentration at which DNA binding ability is lost [4]: 3 µM | DNA binding ability ([4]; 3-to-5 experiments): does not completely abolish the LL37 DNA binding ability
